These results are taken from US7718618B2, “Human cathelicidin antimicrobial peptides” (priority 2003, dated 2010).

For one series, the system named is S. aureus mprF. Kind of series: LL-37 incubated in sweat, radial diffusion assay against S. aureus mprF. The class given is cell-based, Staphylococcus aureus. The conditions noted are these: protease inhibitor added during incubation, 37° C., 6 hr. As to the method:
Antibacterial activity evaluated by radial diffusion assay against S. aureus mprF after incubation of LL-37 (32 uM) in sweat. a) Increase in the inhibition zone is seen when incubated in sweat but not 10 mM PBS or distilled water (DW). b) Diameters of inhibition zone after 6 hr incubation at 37° C. in (SWT buffer; sweat buffer salts alone), (PBS), (D.W.; distilled water), (SWT; sterile filtered human sweat at 37° C.), (SWT at 4° C.), (SWT with PI, with protease inhibitor cocktail). c) Action of specific protease inhibitors on gain of antimicrobial activity. […] N.E.I.=neutrophil elastase inhibitor, L.E.I.=leukocyte elastase inhibitor. Data are triplicate determinations±SEM from single experiment representative of 3.
Sweat collection and processing. Sweat was collected on paper tissues (Kimwipes, Kimberly-Clark, GA) from healthy volunteers after exercise. After collection, 20 ml of sweat was centrifuged at 2000 g for 15 min. at 4° C., filtered through a […] (Acrodisc syringe filter, […], low protein binding, Fisher scientific, Tustin, Calif.), and frozen at −80° C. […] Protein concentrations were evaluated by BCA assay (protein assay reagent, Pierce, Rockford, Ill.) or Bradford protein assay (Bio-Rad, Hercules, Calif.) according to manufacture's instructions. […]

A further series concerns human erythrocytes. Put plainly: Hemolysis assay on human whole blood. In kind it is cell-based. The conditions noted are these: peptide at 100 μM; relative to 0.1% Triton X-100. Here is the method:
Hemolysis Assay. Hemolytic activity was determined on human whole blood. Freshly obtained whole blood was washed 3× in PBS and resuspended in PBS at its original volume containing peptides at indicated concentrations. Samples were incubated at 37° C. for 1.5 to 3 h, and hemolysis determined by centrifuging at 300 g and measurement of the absorbance of the supernatant at 578 nm. Hemolytic activity of each peptide was expressed as the percentage of total hemoglobin released compared to that released by incubating with 0.1% Triton X-100.

The test system of a further series is Staphylococcus aureus. Put plainly: S. aureus growth inhibition (turbidity OD600) with or without carbonate. The class given is cell-based. Here is the method: Carbonate was identified as the antimicrobial enhancing factor in mammalian tissue culture media via serial deletion of Minimal Essential Media (MEM) components. Staphylococcus aureus was cultured in 20% Tryptic Soy Broth (TSB), 10% Fetal Bovine Serum (FBS) and 70% of various media or media components with, or without, 32 μM LL-37 to assess which components could increase antimicrobial activity. MEM buffers are 2200 mg/L NaHCO3, 140 mg/L NaH2PO4 and 6800 mg/L NaCl. MEM salts are 200 mg/L CaCl2, 400 mg/L KCl, 98 mg/L MgSO4. All solutions were adjusted to pH 7.4. Bacterial growth was measured as the change in turbidity at OD600 and percent inhibition was determined by comparing bacterial growth in the presence of peptide to that in the absence of peptide.
Inhibition of S. aureus was measured in 20% TSB, 10% FBS 1 mM NaH2PO4, 150 mM NaCl, with either 50 mM NaHCO3 or […] Glycine buffer at various pH.
Inhibition of Staph aureus growth in the presence of various concentrations of human (LL-37), murine (CRAMP) and porcine (PR-39). Cathelicidin antimicrobial peptides was measured in 20% TSB, 1 mM NaH2PO4, with, or without, […] NaHCO3 at pH 7.4.
The growth of S. aureus in the presence, or absence, of 32 μM LL-37 was measured in 20% TSB, 10% FBS, 1 mM NaH2PO4, 150 mM NaCl, and various concentrations of NaHCO3, all at pH 7.4. […] High concentrations of NaHCO3 retarded the growth of S. aureus. […]

A further series relates to E. coli. Put plainly: E. coli susceptibility to CRAMP with or without NaHCO3. The class given is cell-based.
The subject of the next series is Group B Strep (GBS). Kind of series: Group B Strep susceptibility to CRAMP. In kind it is cell-based. The conditions noted are these: 16 μM peptide, without NaHCO3.
The subject of another series is Salmonella. Kind of series: Salmonella susceptibility to CRAMP. The class given is cell-based. The conditions noted are these: 16 μM peptide, without NaHCO3.
A further series has as its system antigen presentation. Put plainly: Antigen presentation in vitro. The class given is cell-based.
For series [1], the system named is Staphylococcus aureus mprF. Kind of series: Radial diffusion assay against S. aureus mprF. In kind it is cell-based. As to the method:
Antimicrobial assays. For screening of antimicrobial activity of HPLC fractions, radial diffusion assay was used. Lyophilized HPLC fractions were dissolved in DW (GibcoBRL, Grand Island, N.Y.), and tested against Staphylococcus aureus mprF. Thin plates (1 mm) of 1% agarose in 0.5% tryptone containing approximately 1×10^6 cells/ml of S. aureus mprF were used. 1 mm wells were punched in the plates and […] of samples dissolved in tissue culture grade sterile water were loaded in each well.
(§1) As a positive control, synthetic LL-37 was applied to separate wells. After incubation at 37° C. overnight, the inhibition zones were recorded by CCD camera and diameters measured. To evaluate antimicrobial activity against wild-type S. aureus (clinical isolate), and enteroinvasive E. coli 029, both radial diffusion and solution killing assays were done. Radial diffusion assays were done as described for S. aureus mprF. Solution killing was done in 10% TSB in 10 mM PB (TSB=30 gm/L Tryptic Soy Broth, Sigma, St Louis Mo.; 20×PB=27.6 g/L NaH2PO4-H2O, 53.65 g/L Na2HPO4-7H2O, pH 7.4). Bacteria in log-phase growth were suspended to 1×10^6 cells/ml, peptide added and incubated at 37° C. for 2 hr. Bacteria were then plated on TSB agar (TSB, Bactoagar 13 g/L, Becton Dickinson, Sparks Md.) for direct colony count and determination of CFU.

The test system of series [2] is wild-type S. aureus (clinical isolate). Put plainly: Radial diffusion assay against wild-type S. aureus. In kind it is cell-based, Staphylococcus aureus. Here is the method:
as §1

For series [3], the system named is enteroinvasive E. coli 029. Put plainly: Radial diffusion assay against E. coli O29. In kind it is cell-based. As to the method:
as §1

Series [4] has as its system Group A Streptococcus (NZ131). The class given is cell-based. As to the method: as §1
(§2) Activity against Group A Streptococcus (NZ131) was done only in solution assay as described. To evaluate antimicrobial activity in high salt conditions, solution assay was done in 10% TSB/10 mM PBS with several salt concentrations (concentration of NaCl; 10, 50, 100, 150, 300, 500 mM). Action against the C. albicans was determined in Dixon medium (0.6% Peptone, 4% Malt Extract, 1% Glucose, 0.1% Ox Bile, 1% Tween-80) in sterile 96-well microtiter plates (Corning Inc., Corning, N.Y.) at a final volume of […]. The assay mixtures contained 1-2.5×10^4 […] freshly grown Candida, 20% Dixon medium, 0.6 mM phosphate buffer pH 7, and […] chloramphenicol. Microtiter plates were incubated at 37° C. for 24 h with peptides, then plated on Dixon agar to determine the MFC (minimum fungicide concentration).

The test system of a further series is C. albicans ATCC 14053. In kind it is cell-based, Candida albicans. Here is the method:
as §2

The next series relates to S. aureus. Put plainly: Release of cytoplasmic beta-galactosidase from S. aureus (membrane disruption). The class given is cell-based. As to conditions: with versus without NaHCO3. The source says: Release of cytoplasmic expressed beta-galactosidase was measure from bacteria with and without the addition of NaHCO3.
The mark [5] stands for this setting: 16 μM peptide in presence of NaHCO3.
[6] abbreviates: 16 μM peptide without SOM NaHCO3.

Ends that are not written are not given here.

As for `NCCc1ccc(S(=O)(=O)F)cc1` [AEBSF], the “blocking of the increase in antimicrobial activity of LL-37 in sweat” value in the series on S. aureus mprF is reported as “most effective in blocking the increase in antimicrobial activity”.

On to `CC[C@H](C)[C@H](NC(=O)[C@H](CCCCN)NC(=O)[C@H](CCC(=O)O)NC(=O)[C@H](CCCCN)NC(=O)[C@H](CO)NC(=O)[C@H](CCCCN)NC(=O)[C@H](CCCNC(=N)N)NC(=O)[C@H](Cc1ccccc1)NC(=O)[C@H](Cc1ccccc1)NC(=O)[C@H](CC(=O)O)NC(=O)CNC(=O)[C@H](CC(C)C)NC(=O)[C@@H](N)CC(C)C)C(=O)NCC(=O)N[C@@H](CCCCN)C(=O)N[C@@H](CCC(=O)O)C(=O)N[C@@H](Cc1ccccc1)C(=O)N[C@@H](CCCCN)C(=O)N[C@@H](CCCNC(=N)N)C(=O)N[C@H](C(=O)N[C@H](C(=O)N[C@@H](CCC(N)=O)C(=O)N[C@@H](CCCNC(=N)N)C(=O)N[C@H](C(=O)N[C@@H](CCCCN)C(=O)N[C@@H](CC(=O)O)C(=O)N[C@@H](Cc1ccccc1)C(=O)N[C@@H](CC(C)C)C(=O)N[C@@H](CCCNC(=N)N)C(=O)N[C@@H](CC(N)=O)C(=O)N[C@@H](CC(C)C)C(=O)N[C@H](C(=O)N1CCC[C@H]1C(=O)N[C@@H](CCCNC(=N)N)C(=O)N[C@H](C(=O)N[C@@H](CCC(=O)O)C(=O)N[C@@H](CO)C(=O)O)[C@@H](C)O)C(C)C)[C@@H](C)CC)C(C)C)[C@@H](C)CC` [LL-37], for which the “% hemolysis” value in the series on human erythrocytes stood at 9%.

As to Aprotinin, the “blocking of the increase in antimicrobial activity of LL-37 in sweat” value in the series on S. aureus mprF is listed as “most effective in blocking the increase in antimicrobial activity”.

Turning to CRAMP, the entries for the “susceptibility of S. aureus” value in the series with Staphylococcus aureus (setting [5]) and in the series with Staphylococcus aureus (setting [6]) were “became susceptible” and “resistant”, respectively. Besides, the “susceptibility of E. coli” value is “became susceptible” with E. coli (setting [5]) and “resistant” in the series on E. coli (setting [6]). Moreover, the “susceptibility of Group B Strep (GBS)” value in the series with Group B Strep (GBS) was “susceptible even without NaHCO3”. For the same compound, the “susceptibility of Salmonella” value with Salmonella was “susceptible even without NaHCO3”. Moreover, in the series with antigen presentation, the “antigen presentation in vitro” value is reported as “inhibits antigen presentation in vitro”.

With “H-KSKEKIGKEFKRIVQRIKDFLRNLVPRTES-OH [KS-30]”, the “Radial Diffusion Assay S. aureus MprF, minimal inhibitory concentration (MIC)” value in [1] came out at 8 μm. In addition, in series [2], the “action against wild-type S. aureus compared to LL-37” value is recorded as “greatly increased action” and the “Radial Diffusion Assay S. aureus (wt), minimal inhibitory concentration (MIC)” value came to 16 μm. Moreover, in series [3], the “action against E. coli compared to LL-37” value is “greatly increased action” and the “Radial Diffusion Assay E. coli (O29), minimal inhibitory concentration (MIC)” value is recorded as 8 μm. In [4], the “Liquid Assay GAS (NZ131), minimal concentration required to kill” value (shortened to “Liquid Assay GAS (NZ131)”) worked out at 4 μm. For the same compound, the “Liquid Assay C. albicans ATCC 14053, minimal concentration required to kill” value in the series with C. albicans ATCC 14053 was 2 μm.

Regarding “H-RKSKEKIGKEFKRIVQRIKDFLRNLVPRTES-OH [RK-31]”, the “Radial Diffusion Assay S. aureus MprF, minimal inhibitory concentration (MIC)” value in [1] is listed as 8 μm. In series [2], the “action against wild-type S. aureus compared to LL-37” value is recorded as “greatly increased action” and the “Radial Diffusion Assay S. aureus (wt), minimal inhibitory concentration (MIC)” value is given as 16 μm. Moreover, in [3], the “action against E. coli compared to LL-37” value is recorded as “greatly increased action” and the “Radial Diffusion Assay E. coli (O29), minimal inhibitory concentration (MIC)” value is 8 μm. The “Liquid Assay GAS (NZ131)” value in [4] is on record as 8 μm. Moreover, in the series with C. albicans ATCC 14053, the “Liquid Assay C. albicans ATCC 14053, minimal concentration required to kill” value amounted to 4 μm.

For KRIVQRIKDFLRNLVPRTES [KR-20], the “Radial Diffusion Assay S. aureus MprF, minimal inhibitory concentration (MIC)” value in series [1] was 16 μm. In addition, the “Radial Diffusion Assay S. aureus (wt), minimal inhibitory concentration (MIC)” value in [2] is on record as >64 μm. Further, the “Radial Diffusion Assay E. coli (O29), minimal inhibitory concentration (MIC)” value in series [3] is >64 μm. Further, in series [4], the “Liquid Assay GAS (NZ131)” value came out at 4 μm. In the series with C. albicans ATCC 14053, the “Liquid Assay C. albicans ATCC 14053, minimal concentration required to kill” value turned out to be 10 μm.

As to Polymyxin B, the “leakage of cytoplasmic protein (beta-galactosidase)” value in the series on S. aureus is “induces greater leakage of cytoplasmic protein with carbonate”.

On to “SSLLEKGLDGAKKAVGGLGKLGKDAVEDLESVGKGAVHDVKDVLDSV (listed as Homo sapiens) [DCD, dermcidin antimicrobial peptide of human sweat, reference compound]”, for which the “Radial Diffusion Assay S. aureus MprF, minimal inhibitory concentration (MIC)” value in [1] is reported as >64 μm. Further, the “Radial Diffusion Assay S. aureus (wt), minimal inhibitory concentration (MIC)” value in series [2] was >64 μm. The “Radial Diffusion Assay E. coli (O29), minimal inhibitory concentration (MIC)” value in [3] is on record as >64 μm. For the same compound, in series [4], the “Liquid Assay GAS (NZ131)” value is on record as >64 μm. Further, in the series on C. albicans ATCC 14053, the “Liquid Assay C. albicans ATCC 14053, minimal concentration required to kill” value is on record as >32 μm.
